Measurements as given in patent publication US8877932B2, “Anhydrous lenalidomide form-I” (Natco Pharma Limited, priority 2010, dated 2014).
Converted amounts (≈) assume the structure as drawn. Like-named read-outs stand apart in the source and are kept apart here.

What was measured:
[1] = reported in US 2005/0096351 A1; cited from earlier work
[2] = Intrinsic dissolution (Woods apparatus); type: physicochemical; conditions: HCl buffer, pH 1.8, 1% sodium lauryl sulfate, 37° C., 50 rpm
Protocol: Dissolution experiments were carried out in a ELECTROLAB-8 dissolution apparatus equipped with a ETC-112 temperature controller. An intrinsic dissolution apparatus (Woods apparatus) was used. Samples were compressed at 2.0 metric tons for 1 min in KBr hydraulic press, giving a sample surface of 0.50 cm^2. A dissolution medium consisting of 900 mL HCl buffer, pH 1.8, with 1% sodium lauryl sulfate, was used for each experiment. The medium was degassed by vacuum filtration through a 0.45-μm nylon filter disk and maintained at 37° C. The apparatus was rotated at 50 rpm for each experiment. Aliquots were filtered immediately using 0.45-μm nylon syringe filters. In some cases, the undissolved solids were recovered and analyzed by X-ray powder diffraction (XRPD).
(§1) Both the solubility and dissolution experiments were conducted in a medium of HCl buffer, pH 1.8, containing 1% sodium lauryl sulfate. The solubilities were estimated to be 3.15 mg/ml for Form 1 & 3.28 mg/ml for Form B, respectively.

Equilibrium solubility = type: physicochemical; conditions: pH 1.8, 1% sodium lauryl sulfate
Protocol: A solid sample of 450 mg was stirred in 50 mL of dissolution medium (HCl buffer, pH 1.8, with 1% sodium lauryl sulfate) using a mechanical stir rod. Aliquots were filtered and centrifuged at 3500 rpm using 0.2-μm nylon syringe filters and immediately diluted 1 mL→50 mL, then 5 mL→425 mL with dissolution medium. In some cases, the undissolved solids were recovered and sent for X-ray powder diffraction (XPRD) studies.
as §1

[3] = Thermal stability of Lenalidomide Form I; type: physicochemical; conditions: heating at 95 to 105° C. for 7 days
Protocol: The lenalidomide Form I obtained after drying temperature 65 to 75° C. under vacuum is taken subjected to heating at 95 to 105° C. in oil bath, kept in rotator vapor for 7 days, cool to room temperature and the sample is analyzed per IR, NMR, XRPD (X-ray powder diffractometry), DSC (differential scanning calorimetry) & TGA (thermogravimetry). […] The moisture content is also determined for sample and found to be less than 1%.

[4] = Moisture content of prepared Form-I samples; type: physicochemical; conditions: samples as prepared
Bulk density = type: physicochemical
From the text: Batch No—0812/006 • Untapped Density—0.286 g/ml • Tapped density—0.481 g/ml • III. Batch No—0812/006 • Untapped Density—0.286 g/ml • Tapped density—0.481 g/ml

[5] = Accelerated stability studies; type: physicochemical
Protocol: The lenalidomide Form I sample are subjected to accelerated stability studies under following conditions & analyzed at initial after 1, 2, 3 and 6 months. • Condition 1—temperature: 40° C.±2° C. • Relative humidity: 75% RH±5% • Condition 1—temperature: 30° C.±2° C. • Relative humidity: 65% RH±5%
We have not observed major deviation in quality of samples analysed of initial samples after 1,2, 3 and 6 months.
No increase in impurity profile is observed in 1,2, 3 and 6 months sample.

Humidity test = type: physicochemical
Protocol: The anhydrous form of lenalidomide along with two batches (0812/006 & 0812/007 &) were subjected for humidity test.
NaBr, NH4Cl, KOH, Na2HPO4 were used as Saturated solution at temperature 25.1° C., 25° C., 24.7° C., 26.8° C. and humidity 84%, 79%, 23%, 93% respectively at initial water content of 0.08%.

[6] = Storage stability at room temperature; type: physicochemical; conditions: more than a year at room temperature (25-35° C.)
Protocol: The thus obtained anhydrous novel form is very stable at room temperature (25-35° C.) and is not absorbing water or converting to any reported hydrated forms.

[7] = Encapsulated Form I compared with […] capsules (XRPD, moisture content); type: physicochemical
From the text: The sample of lenalidomide Form I API is encapsulated & compared with the […] capsules.

[8] = 40° C./75% RH and 30° C./65% RH, 1, 2, 3 and 6 months

For Nc1cccc2c1CN(C1CCC(=O)NC1=O)C2=O (centres unmarked) [Form-E, 3-(4-amino-1-oxo-1,3-dihydro-isoindole-2-yl)-piperidine-2,6-dione], which moisture content [1] is on record?
The moisture content was 11.9%.

Which hygroscopicity [1] does the source give for Nc1cccc2c1CN(C1CCC(=O)NC1=O)C2=O (centres unmarked) [Form A, 3-(4-amino-1-oxo-1,3-dihydro-isoindol-2-yl)-piperidine-2,6-Dione] here?
The hygroscopicity was “not hygroscopic”.

With Nc1cccc2c1CN(C1CCC(=O)NC1=O)C2=O (centres unmarked) [Form-B, 3-(4-amino-1-oxo-1,3-dihydro-isoindole-2-yl)-piperidine-2,6-dione, reference compound] as the compound, how does the dissolution rate [2] read?
Its dissolution rate is 0.250 mg/min/cm^2.

And the solubility (Equilibrium solubility; HCl buffer, 25° C.)?
Its solubility is 3280 µg/mL (≈ 12.7 mM).

And the moisture content [1]?
The moisture content was 3.1%.

Which “change in impurity profile” value [3] does the source give for Nc1cccc2c1CN(C1CCC(=O)NC1=O)C2=O (centres unmarked) [Form-I, 3-(4-amino-1-oxo-1,3-dihydro-isoindole-2-yl)-piperidine-2,6-dione] here?
Its value is “No further change”.

And the “change in spectral data (IR, NMR, XRPD, DSC, TGA)” value [3]?
The value was “No change is observed”.

What about the “moisture content after heating” value [3] of the same compound?
The value was “less than 1%”.

And the moisture content [4]?
The moisture content was “less than 0.1%”.

And the Tapped density (Bulk density; listed as 0812/005)?
Its Tapped density is 0.465 g/mL.

What about the “Untapped Density” value (Bulk density; listed as 0812/005) of the same compound?
Its value is 0.278 g/mL.

And the Tapped density (Bulk density; listed as 0812/006)?
Its Tapped density is 0.481 g/mL.

What about the “Untapped Density” value (Bulk density; listed as 0812/006) of the same compound?
The value was 0.286 g/mL.

And the impurity profile [5, 8]?
Its impurity profile is “No increase”.

And the “moisture content after accelerated stability storage” value [5, 8]?
The value was 0.21 % w/w.

And the “conversion to hydrated polymorphic form” value ([5]; 40° C./75% RH and 30° C./65% RH, up to 6 months)?
The value was “not converted in any of the hydrated polymorphic form”.

And the “moisture content, initial” value ([5]; before accelerated stability storage)?
The value was 0.09 % w/w.

And the “water content after humidity test” value (Humidity test; KOH saturated solution, 24.7° C., humidity 23%)?
The value was 0.12 % w/w.

What about the “water content after humidity test” value (Humidity test; NH4Cl saturated solution, 25° C., humidity 79%) of the same compound?
Its value is 0.13 % w/w.

What about the “water content after humidity test” value (Humidity test; Na2HPO4 saturated solution, 26.8° C., humidity 93%) of the same compound?
The value was 0.10 % w/w.

And the “water content after humidity test” value (Humidity test; NaBr saturated solution, 25.1° C., humidity 84%)?
Its value is 0.21 % w/w.

And the initial water content (Humidity test; before humidity test)?
Its initial water content is 0.08%.

And the dissolution rate [2]?
The dissolution rate was 0.421 mg/min/cm^2.

And the solubility (Equilibrium solubility; HCl buffer with 1% sodium lauryl sulfate, 25 °C, pH 1.8, aqueous with cosolvent or surfactant or cyclodextrin, thermodynamic from solid, read-out: solubility)?
Its solubility is 3150 µg/mL (≈ 12.1 mM).

What about the “conversion to hydrated form on storage” value [6] of the same compound?
The value was “not converted into any hydrated from”.

What about the “polymorphic form after encapsulation (XRPD)” value [7] of the same compound?
The value was “not changed even after encapsulation”.
